Test results taken from patent publication US4119719A, “Piperazine compounds” (Parcor, priority 1975, dated 1978).
Where a name gives a salt, the structure may show the parent alone.

Assays:
dyslipaemia = assay: Hypocholesterolaemic activity: rabbits kept on a hypercholesterolaemic diet, biological tests of dyslipaemia; format: in vivo; set-up: total cholesterol (T) / esterified cholesterol (E) / free cholesterol (L) / Burstein test with dextrane (B) / serum lipids (LS): unit not given here; conditions: 10 mg/kg daily oral
Procedure: (§1) (b) This study was carried out on rabbits kept on a hypercholesterolaemic diet. The rabbits are divided into batches of 40 animals; the control batch (A) receives no treatment, whereas the treated batches are given the medicines according to the invention. Thus, derivative no. 1 is administered to the animals in batch B, derivative no. 5 to those in batch C and derivative no. 7 to those in batch D, by oral route, daily, in dosage of 10 mg/kg. On the first day of the experiments and then every 15 days, for a period of 75 days, biological tests are carried out on all the animals, whereby the various elements which indicate dyslipaemia are determined: total cholesterol (T), esterified cholesterol (E), free cholesterol (L), esterification ratio (E/T), Kunkel phenol test (K1), Kunkel phenol test (K2), Burstein test with dextrane (B) and serum lipids (LS).
(§2) The results, representing the average values determined with each batch, are assembled in the following Tables: […]

livers and aortas = assay: Rabbits kept on a hypercholesterolaemic diet: macroscopic examination of livers and aortas; format: in vivo; conditions: 10 mg/kg daily oral, end of experiment; for aortic atheromatous lesions: marked in intensity from 0 to 4; for fatty infiltrations of the liver: marked in size from 0 to 3
Procedure: as §1
At the end of the experiment, all the animals are killed and autopsies are performed on them; macroscopic examinations of their livers and aortas are then carried out, and the fatty infiltrations of the liver are marked, in size, from 0 to 3 and the aortic atheromatous lesions are marked, in intensity, from 0 to 4.
as §2

[1] = LD50 /24 hours, intravenous route in mice (method of Miller and Tainter); conditions: mouse, in vivo, read-out: LD50 /24 hours/kg of body weight
Procedure: 1, 53 mg for derivative no. 2, 89 mg for derivative no. 3, 57 mg for derivative no. 4, 41 mg for derivative no. 5, 62 mg for derivative no. 6, 66 mg for derivative no. 7, 74 mg for derivative no. 8 and 100 mg for derivative no. 9.

[2] = test system: stretching movements induced by acetic acid; assay: Analgesic activity: acetic acid stretching movements (method of Koster, Anderson and De Beer); format: in vivo; conditions: mice, 50 mg/kg oral thirty minutes before acetic acid; reduction in stretching movements in next thirty minutes
Procedure: The intraperitoneal injection of a dilute solution of acetic acid causes, in mice, repeated characteristic stretching movements under the effect of the pain. The oral administration of a dosage of 50 mg/kg of the test derivative, thirty minutes before the injection of acetic acid, reduces the number of movements in the next thirty minutes. In this way, the average number of stretching movements and the percentage analgesia obtained, corresponding to the percentage reduction in the number of stretching movements, compared with the controls, are determined.

[3] = test system: cholesterol level in the plasma; assay: Hypocholesterolaemic activity: test using propyl thiouracil; format: in vivo; conditions: rats, 10 mg/kg orally, 11th day
From the text: (a) Test using propyl thiouracil ([…] and Coll., J. Pharmacol. Exper. Therap., 1963, 142, 132-136). […] On the 11th day of the experiment, blood samples are taken and the free cholesterol and total cholesterol are estimated.

ovalbumin oedema = assay: Anti-inflammatory activity: generalised ovalbumin oedema; format: in vivo; conditions: rat, 50 mg oral one hour before and at injection of ovalbumin
Procedure: The rat is given a simultaneous intraperitoneal injection of 1 ml of ovalbumin and 0.5 ml of a 1% aqueous solution of Evans blue. Moreover, 50 mg of the test derivative are administered orally to the animals of the test batches one hour before and at the same time as the injection of ovalbumin. The intensity of the phenomenon thus induced is given a mark from 1 to 5, depending on the progression of the inflammatory syndrome. Thus, the average oedematous intensity and the percentage reduction in the oedematous reaction, compared with the control, are determined.

[4] = test system: carrageenin-induced oedema; assay: Anti-inflammatory activity: localised carrageenin-induced oedema; format: in vivo; conditions: rat, 10 mg/kg oral (four administrations)
Procedure: A 1% carrageenin solution (0.1 ml) is injected into the metatarsal flexors of the right hind paw of the rat at time 0. The animals in the treated batch are also given by oral route, 10 mg/kg of the test derivative, one hour before, then at the same time as the injection of the phlogogenic agent, then one hour and 21/2 hours afterwards, respectively. The measurements taken with a Roch micrometer at time 0, then 1 hour, 2 hours, 3 hours and 5 hours after administration of the carrageenin make it possible to determine, as a function of time, the percentage anti-inflammatory activity compared with the control batch.

Cc1ccc(N2CCN(CCCNC3CCCCC3)CC2)cc1 [Derivative no. 1, 1-(3-cyclohexylamino-propyl)-4-p-tolyl-piperazine]
Burstein test with dextrane (B) (dyslipaemia; 1st Day): 11.1
Kunkel phenol test (K1) (dyslipaemia; 1st Day): 8.2
Kunkel phenol test (K2) (dyslipaemia; 1st Day): 13.7
esterification ratio (E/T) (dyslipaemia; 1st Day): 0.50
esterified cholesterol (E) (dyslipaemia; 1st Day): 0.28
free cholesterol (L) (dyslipaemia; 1st Day): 0.27
serum lipids (LS) (dyslipaemia; 1st Day): 1.95
total cholesterol (T) (dyslipaemia; 1st Day): 0.55
Burstein test with dextrane (B) (dyslipaemia; 30th Day): 21.2
Kunkel phenol test (K1) (dyslipaemia; 30th Day): 18.6
Kunkel phenol test (K2) (dyslipaemia; 30th Day): 25.4
esterification ratio (E/T) (dyslipaemia; 30th Day): 0.62
esterified cholesterol (E) (dyslipaemia; 30th Day): 0.92
free cholesterol (L) (dyslipaemia; 30th Day): 0.55
serum lipids (LS) (dyslipaemia; 30th Day): 2.91
total cholesterol (T) (dyslipaemia; 30th Day): 1.47
Burstein test with dextrane (B) (dyslipaemia; 75th Day): 35.8
Kunkel phenol test (K1) (dyslipaemia; 75th Day): 33.1
Kunkel phenol test (K2) (dyslipaemia; 75th Day): 41.9
esterification ratio (E/T) (dyslipaemia; 75th Day): 0.66
esterified cholesterol (E) (dyslipaemia; 75th Day): 1.80
free cholesterol (L) (dyslipaemia; 75th Day): 1.12
serum lipids (LS) (dyslipaemia; 75th Day): 4.03
total cholesterol (T) (dyslipaemia; 75th Day): 2.92
aortic atheromatous lesions (livers and aortas): 1.4
fatty infiltrations of the liver (livers and aortas): 0.9
LD50 at 24 h [1]: 25 mg/kg
average percentage of analgesia [2]: 65%

Clc1ccc(N2CCN(CCCN3CCCCC3)CC2)cc1 [Derivative no. 2, 4-p-chlorophenyl-1-(3-piperidinopropyl)-piperazine]
Free cholesterol [3]: 0.13 g/L
Total cholesterol [3]: 0.62 g/L
LD50 at 24 h [1]: 53 mg/kg
average percentage of analgesia [2]: 72%

CCCNCCCN1CCN(c2ccc(F)cc2)CC1 [Derivative no. 3, 1-(p-fluorophenyl)-4-(3-N-propylamino)propyl piperazine trihydrochloride]
Percentage reduction in oedematous reaction (ovalbumin oedema; 2nd hour): 51%
Percentage reduction in oedematous reaction (ovalbumin oedema; 3rd hour): 62%
LD50 at 24 h [1]: 89 mg/kg
Percentage anti-inflammatory activity ([4]; after 1 hr): 31%
Percentage anti-inflammatory activity ([4]; after 2 hrs): 44%
Percentage anti-inflammatory activity ([4]; after 3 hrs): 47%
Percentage anti-inflammatory activity ([4]; after 5 hrs): 49%

CCCNCCCN1CCN(c2cccc(C(F)(F)F)c2)CC1 [Derivative no. 4, 1-(3-n-propylaminopropyl)-4-(m-trifluoro-methylphenyl)-piperazine dihydrochloride]
Percentage reduction in oedematous reaction (ovalbumin oedema; 2nd hour): 49%
Percentage reduction in oedematous reaction (ovalbumin oedema; 3rd hour): 61%
LD50 at 24 h [1]: 57 mg/kg
Percentage anti-inflammatory activity ([4]; after 1 hr): 39%
Percentage anti-inflammatory activity ([4]; after 2 hrs): 51%
Percentage anti-inflammatory activity ([4]; after 3 hrs): 53%
Percentage anti-inflammatory activity ([4]; after 5 hrs): 58%

Cl.Cl.Cl.Clc1ccc(N2CCN(CCCNC3CCCCC3)CC2)cc1 [Derivative no. 5, 1-(3-cyclohexylamino-propyl)-4-(p-chlorophenyl)-piperazine trihydrochloride]
Burstein test with dextrane (B) (dyslipaemia; 1st Day): 10.9
Kunkel phenol test (K1) (dyslipaemia; 1st Day): 8.1
Kunkel phenol test (K2) (dyslipaemia; 1st Day): 12.6
esterification ratio (E/T) (dyslipaemia; 1st Day): 0.49
esterified cholesterol (E) (dyslipaemia; 1st Day): 0.28
free cholesterol (L) (dyslipaemia; 1st Day): 0.29
serum lipids (LS) (dyslipaemia; 1st Day): 2.1
total cholesterol (T) (dyslipaemia; 1st Day): 0.57
Burstein test with dextrane (B) (dyslipaemia; 30th Day): 21.1
Kunkel phenol test (K1) (dyslipaemia; 30th Day): 18.8
Kunkel phenol test (K2) (dyslipaemia; 30th Day): 25.0
esterification ratio (E/T) (dyslipaemia; 30th Day): 0.62
esterified cholesterol (E) (dyslipaemia; 30th Day): 0.91
free cholesterol (L) (dyslipaemia; 30th Day): 0.54
serum lipids (LS) (dyslipaemia; 30th Day): 2.85
total cholesterol (T) (dyslipaemia; 30th Day): 1.45
Burstein test with dextrane (B) (dyslipaemia; 75th Day): 35.9
Kunkel phenol test (K1) (dyslipaemia; 75th Day): 32.8
Kunkel phenol test (K2) (dyslipaemia; 75th Day): 41.8
esterification ratio (E/T) (dyslipaemia; 75th Day): 0.60
esterified cholesterol (E) (dyslipaemia; 75th Day): 1.78
free cholesterol (L) (dyslipaemia; 75th Day): 1.14
serum lipids (LS) (dyslipaemia; 75th Day): 4.1
total cholesterol (T) (dyslipaemia; 75th Day): 2.92
aortic atheromatous lesions (livers and aortas): 1.2
fatty infiltrations of the liver (livers and aortas): 1.0
Free cholesterol [3]: 0.16 g/L
Total cholesterol [3]: 0.55 g/L
LD50 at 24 h [1]: 41 mg/kg

Clc1ccccc1N1CCN(CCCNC2CCCCC2)CC1 [Derivative no. 6, 4-(o-chlorophenyl)-1-(3-cyclohexylamino)-propylpiperazine trihydrochloride]
Free cholesterol [3]: 0.15 g/L
Total cholesterol [3]: 0.53 g/L
LD50 at 24 h [1]: 62 mg/kg
average percentage of analgesia [2]: 61%

COc1ccc(N2CCN(CCCN3CCCC3)CC2)cc1.Cl.Cl.Cl [Derivative no. 8, 1-(p-methoxyphenyl)-4-(3-pyrrolidino-propyl)-piperazine trihydrochloride]
Percentage reduction in oedematous reaction (ovalbumin oedema; 2nd hour): 55%
Percentage reduction in oedematous reaction (ovalbumin oedema; 3rd hour): 68%
LD50 at 24 h [1]: 74 mg/kg
Percentage anti-inflammatory activity ([4]; after 1 hr): 37%
Percentage anti-inflammatory activity ([4]; after 2 hrs): 48%
Percentage anti-inflammatory activity ([4]; after 3 hrs): 50%
Percentage anti-inflammatory activity ([4]; after 5 hrs): 54%

Clc1ccc(N2CCN(CCCN3CCOCC3)CC2)cc1 [Derivative no. 9, dimaleate]
Free cholesterol [3]: 0.13 g/L
Total cholesterol [3]: 0.57 g/L
LD50 at 24 h [1]: 100 mg/kg
